From patent US5719179A, “Compound GEX1” (Kyowa Hakko Kogyo Co., Ltd., priority 1995, dated 1998)
In brackets after ≈: the same amount, converted by molar mass. Like-named read-outs stand apart in the source and are kept apart here.

What was measured:
[1] = Solubility (physicochemical data)
[2] = test system: Human Epidermic Cancer A431 Cells; test: Growth inhibition against Human Epidermic Cancer A431 cells (MTT); type: cell-based; details: read-out: 50% growth inhibitory concentration (IC50), A431
Method: Growth Inhibition against Human Epidermic Cancer A431 Cells
Human Epidermic Cancer A431 cells were put into a 96-well microtiter plate (Nunc #167008) at 3×10^3 cells/well, and cultured in a 5% CO2 incubator at 37° C. for 24 hours. Each of 3 μg/ml GEX1 compounds was stepwise diluted. Each dilution was put into each well in an amount of 50 μl. The final concentration of the resulting suspension, in the wells of the plate was controlled to be at most 1 μg/ml. The cells were further cultured in the 5% CO2 incubator at 37° C. for 72 hours. Five hours before the termination of the incubation, MTT [3-(4,5-dimethylthiazo-2-yl)-2,5-diphenyltetrazolium bromide, Sigma Co., St. Louis, Mo.] dissolved in a medium as used for the culturing was put into each well in an amount of 50 μl, the final concentration of MTT added in each well being 1 mg/ml. After the culturing, DMSO was added to each well in an amount of 150 μl, followed by vigorous stirring with a plate mixer to completely dissolve crystals of MTT-formazan. The absorbance at 550 nm was measured by using a microplate reader MTP-32 (Corona Electric Co., Ltd.). and the cell growth inhibiting activity of each GEX1 compound tested was expressed in terms of 50% growth inhibitory concentration (IC50).

[3] = JP,A, 6-22770; cited from earlier work
[4] = A-431, A431 cells, 72 hours, MTT, absorbance at 550 nm

| SMILES | Solubility in chloroform [1] | Solubility in dimethylsulfoxide (DMSO) [1] | Solubility in hexane [1] | Solubility in methanol [1] | IC50 [2, 4] [µg/mL] | IC50 ([2]; A-431, 72 h) [µg/mL] | antitumor activity [3] | Solubility in water ([1]; water) |
| --- | --- | --- | --- | --- | --- | --- | --- | --- |
| COC(C(C)O)C(C)C1OC1(C)CC(C)C=CC=C(C)C1OC(CC(=O)O)CC(O)C1C (centres unmarked) [GEX1Q1] | hardly soluble | Soluble | hardly soluble | Soluble | 0.42 (≈ 0.924 µM) |  |  |  |
| COC(C(C)O)C(C)C1OC1(C)CC(C)(O)C=CC=C(C)C1OC(CC(=O)O)CCC1C (centres unmarked) [GEX1Q2] | hardly soluble | Soluble | hardly soluble | Soluble |  | 0.23 (≈ 0.506 µM) |  |  |
| CC(=CC=CC(C)CC1(C)OC1C(C)C(O)C(C)O)C1OC(CC(=O)O)CCC1C (centres unmarked) [GEX1Q5] |  | Soluble | hardly soluble | Soluble | 0.0053 (≈ 0.0125 µM) |  |  |  |
| COC(C(C)O)C(C)C1OC1(C)CC(C)C=CC=C(C)C1OC(CC(=O)O)CCC1C (centres unmarked) [TAN-1609] |  |  |  |  |  |  | has antitumor activity |  |
| COC(C(C)O)C(C)C1OC1(C)CC(C)C=CC=C(CO)C1OC(CC(=O)O)CCC1C (centres unmarked) [GEX1Q4] | hardly soluble | Soluble | hardly soluble | Soluble |  | 0.45 (≈ 0.99 µM) |  |  |
| COC(C(C)O)C(C)C1OC1(C)CC(C)C=CC=C(C)C1OC(CC(=O)OC2OC(C(=O)O)C(O)C(O)C2O)CCC1C (centres unmarked) [GEX1Q3] | hardly soluble | Soluble | hardly soluble | Soluble |  | 0.02 (≈ 0.0325 µM) |  | Soluble |
